Measurements taken from US8129357B2, “Method of making and using an adenosine analogue” (Academia Sinica, priority 2006, dated 2012).
Entries after “also recorded” stand apart in the source; their conditions may differ.

Experiments:
[1] = molecular target: T1, A2A-R (Rattus norvegicus, UniProt P30543); assay: Cellular cAMP content of ST14A cells; type: cell-based; details: for intracellular cAMP level: 20 min at RT, CGS21680 10 μM, T1-C 10 μM, T1-11 26.8 μM
T1 construct: treating ST14A cells (Ehrlich, et al. (2001)) with either T1-C or T1-11 also elevated the intracellular cAMP level; endogenous in cells; host or cells: ST14A striatal progenitor cell line

[2] = test system: primary astrocytes from wildtype (WT) and R6/2-J2 mice; assay: LPS-induced iNOS expression and NO production in primary astrocytes; type: cell-based, mouse; details: primary astrocytes from WT and R6/2-J2 mice
Procedure: Primary astrocytes were purified from neonatal (1-2-day old) brains of R6/2 HD mice (Mangiarini, L., et al., Exon 1 of the HD gene with an expanded CAG repeat is sufficient to cause a progressive neurological phenotype in transgenic mice. Cell 87, 493-506 (1996)) and their littermates as the WT control. In brief, the cortexes were carefully removed, digested with 0.05% trypsin-EDTA (Gibco, Grand Island, N.Y., USA) at 37° C. for 10 min, then mechanically dissociated by gentle pipetting and passed through a 70-μm-pore nylon mesh. […] Mutant Htt expression was measured by a mouse monoclonal anti-human Htt antibody (EM48) (1:200 dilution, Chemicon International, Temecula, Calif., USA). The purity of the primary astrocyte cultures was determined by immunocytochemical staining using an antibody against an astrocyte-specific marker (GFAP, dilution 1:1000; Sigma, St. Louis, Mo., USA) or a microglia-specific marker (anti-CD11b, dilution 1:200, Serotec, Oxford, UK). […]
Protein concentrations were determined using the Bio-Rad Protein Assay Dye Reagent Concentrate (Bio-Rad, Hercules, Calif., USA). […]
For the measurement of NO production, cells (5×10^5 cells/well) were treated with lipopolysaccharide (LPS, 0.5 μg/ml) in the presence of the desired drug for 72 hr. […] The absorbance at 540 nm was then monitored. […]

[3] = test system: R6/2 mice; assay: Survival / lifespan of R6/2 mice; type: in vivo, mouse; details: for lifespan of R6/2 mice: drinking water from the age of 4 weeks, T1-C 0.5 mg/mL, T1-11 0.05 mg/mL; for mean survival time: mean±SEM, n=7~8, T1-C 0.5 mg/mL, T1-11 0.05 mg/mL in drinking water, control 94.9±2.5
[4] = test system: R6/2 mice; assay: Rotarod performance (motor coordination) in R6/2 mice; type: in vivo, mouse; details: drinking water from the age of 4 weeks, T1-C 0.5 mg/mL, T1-11 0.05 mg/mL
Description: Male R6/2 mice and littermate controls were mated to female control mice (B6CBAFI/J). Mice were obtained from Jackson Laboratories, Bar Harbor, Me., USA. Offspring were identified by the PCR genotyping technique of genomic DNA extracted from tail tissues using primers located in the transgene (5′-[…]-3′ (SEQ ID NO: 1) and 5′-[…]-3′ (SEQ ID NO: 2)) to ensure that the number of CAG repeats remained approximately 150. In total, 67 R6/2 transgenic mice were used in this study. Animals were housed at the Institute of Biomedical Sciences Animal Care Facility under a 12-h light/dark cycle. Daily injections of the indicated reagent were given between 13:00 and 18:00. Body weights of mice were recorded once daily, prior to diet administration. Animal experiments were performed under protocols approved by the Academia Sinica Institutional Animal Care and Utilization Committee, Taiwan.
Motor coordination was assessed using a rotarod apparatus (UGO BASILE, Comerio, Italy) at a constant speed (12 rpm) over the period of 2 min (Carter, et al. (1999)). All mice were trained for 2 days at the age of 6 weeks to allow them to become acquainted with the rotarod apparatus. Animals were then tested three times per week from the ages of 7 to 12 weeks. For each test, animals were placed in the apparatus before initiation of rotation. Latency to falling was automatically recorded. […]

[5] = test system: PC12 cells; assay: MTT assay: protection of serum-deprived PC12 cells from apoptosis; type: cell-based, rat; details: 24 h treatment
Procedure: PC12 cells purchased from American Type Culture Collection (ATCC, Manassas, Va., USA) were maintained in Dulbecco's Modified Eagle Medium (DMEM) supplemented with 10% horse serum and 5% fetal bovine serum and incubated in a CO2 incubator (5%) at 37° C. The striatal progenitor cell line (ST14A) was obtained from Dr. E. Cattaneo (University of Milano, Italy) and was maintained in an incubation chamber with 10% CO2-90% air at 33° C. as described previously (Ehrlich, et al. (2001)).
PC12 cells were serum-deprived by three washes of phosphate buffered saline (PBS) and resuspended in DMEM. The suspended cells were plated on 96-well plates (1×10^4 cells/well) and treated with the indicated reagent(s). After treatment for 21 h, 3-(4,5-dimethylthiazol-2-yl)-2,5-diphenyl tetrazolium bromide (MTT) was added to the medium (0.5 mg/mL) and incubated at 37° C. for another 3 h. After discarding the medium, 100 μl dimethyl sulfoxide (DMSO) was then applied to each well to dissolve the formazan crystals and the absorbances at 570 and 630 nm in each well were measured on a micro-enzyme linked immunosorbent assay (ELISA) reader.

[6] = test system: BV2 cells; assay: LPS-evoked iNOS induction and NO production in BV2 cells; type: cell-based
[7] = Body weight of R6/2 mice; type: in vivo, mouse; details: drinking water from the age of 4 weeks, T1-C 0.5 mg/mL, T1-11 0.05 mg/mL

T1 sequence (P30543 whole entry): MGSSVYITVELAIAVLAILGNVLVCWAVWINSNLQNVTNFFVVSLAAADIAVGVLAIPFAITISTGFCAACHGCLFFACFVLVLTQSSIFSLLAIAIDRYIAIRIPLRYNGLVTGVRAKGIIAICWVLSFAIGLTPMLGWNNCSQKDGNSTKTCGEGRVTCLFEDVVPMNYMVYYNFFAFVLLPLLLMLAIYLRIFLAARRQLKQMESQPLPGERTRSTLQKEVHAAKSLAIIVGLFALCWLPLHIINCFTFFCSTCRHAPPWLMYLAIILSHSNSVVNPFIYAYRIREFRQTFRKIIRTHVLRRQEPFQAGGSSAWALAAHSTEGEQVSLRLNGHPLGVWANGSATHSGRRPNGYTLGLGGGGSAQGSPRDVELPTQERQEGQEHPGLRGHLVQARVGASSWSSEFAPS

| Compound | suppression of the cAMP response by A2A-R antagonist [1] | LPS-induced inflammation (iNOS expression and NO production) [2] | lifespan of R6/2 mice [3] | mean survival time [3] | progressive deterioration of motor coordination (rotarod performance) [4] | protection of PC12 cells from apoptosis induced by serum withdrawal (cell viability, MTT) [5] | intracellular cAMP level [1] | LPS-evoked NO production [6] | LPS-evoked iNOS induction [6] | body weight loss [7] |
| --- | --- | --- | --- | --- | --- | --- | --- | --- | --- | --- |
| Cn1c(=O)c2c(nc(/C=C/c3cccc(Cl)c3)n2C)n(C)c1=O [CSC, reference compound] | suppressed | – | – | – | – | – | – | – | – | – |
| OCC1OC(n2cnc3c(NCc4ccc(O)cc4)ncnc32)C(O)C1O (stereo not shown) [T1-11, 2-(6-(4-hydroxybenzylamino)-9H-purin-9-yl)-5-(hydroxymethyl)tetrahydrofuran-3,4-diol] | – | effectively suppressed | elongated | 104.9 ± 5.2 days | markedly delayed | active; also recorded: much more potent than T1-C | elevated | reduces | reduces | ameliorated |
| Oc1ccc(CSCc2ccc(O)cc2)cc1 [T1-C, 4,4′-dihydroxybenzyl sulfide] | – | – | elongated | 106.7 ± 4.6 days | markedly delayed | active | elevated | – | – | ameliorated |
